21 compounds from patent US9062033B2, “Chemical compounds” (Rottapharm Biotech S.r.l., priority 2011, dated 2015) can be followed below.

Assay [1] has as its target T1, human OX2 receptors (Homo sapiens, UniProt O43614).
T1 construct: expressed in transfected cells; host or cells: HEK-293 cells
T1 sequence (O43614 1-444): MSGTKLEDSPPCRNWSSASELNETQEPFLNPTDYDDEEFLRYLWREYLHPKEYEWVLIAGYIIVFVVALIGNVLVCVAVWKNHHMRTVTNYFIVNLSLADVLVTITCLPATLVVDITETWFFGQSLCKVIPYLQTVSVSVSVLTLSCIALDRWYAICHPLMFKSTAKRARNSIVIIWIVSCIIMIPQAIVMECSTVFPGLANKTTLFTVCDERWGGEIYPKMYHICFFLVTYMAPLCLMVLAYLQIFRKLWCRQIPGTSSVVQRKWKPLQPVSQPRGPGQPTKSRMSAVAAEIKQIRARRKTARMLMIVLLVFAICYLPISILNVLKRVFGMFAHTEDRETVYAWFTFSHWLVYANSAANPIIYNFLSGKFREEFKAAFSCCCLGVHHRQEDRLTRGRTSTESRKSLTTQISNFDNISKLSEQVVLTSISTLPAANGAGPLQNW
The assay is described as follows: Antagonistic activity against human OX2 receptor, [Ca2+]i fluorimetry (Fluo-4NW) in transfected HEK-293 cells activated with orexin-B. Format: cell-based. The note with it: HEK-293 cells transfected with human recombinant OX2; orexin-B 10 nM; pKb = co-logarithm of apparent dissociation constant, modified Cheng Prusoff. In a few lines:
(§1)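 Fluo-4NW-loaded cells were preincubated with compound (1 nM–1 μM, 0.3% DMSO, duplicates) for 5 min at 22 °C, then stimulated with 3 nM orexin-A (OX1, CHO) or 10 nM orexin-B (OX2, HEK-293), and [Ca2+]i was read fluorimetrically. IC50 came from Hill-equation fitting, averaged over ≥2 experiments, and was converted to pKb by modified Cheng-Prusoff.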

Assay [2] has as its target T2, human OX1 receptors (Homo sapiens, UniProt O43613).
T2 construct: expressed in transfected cells; host or cells: CHO cells
T2 sequence (O43613 1-425): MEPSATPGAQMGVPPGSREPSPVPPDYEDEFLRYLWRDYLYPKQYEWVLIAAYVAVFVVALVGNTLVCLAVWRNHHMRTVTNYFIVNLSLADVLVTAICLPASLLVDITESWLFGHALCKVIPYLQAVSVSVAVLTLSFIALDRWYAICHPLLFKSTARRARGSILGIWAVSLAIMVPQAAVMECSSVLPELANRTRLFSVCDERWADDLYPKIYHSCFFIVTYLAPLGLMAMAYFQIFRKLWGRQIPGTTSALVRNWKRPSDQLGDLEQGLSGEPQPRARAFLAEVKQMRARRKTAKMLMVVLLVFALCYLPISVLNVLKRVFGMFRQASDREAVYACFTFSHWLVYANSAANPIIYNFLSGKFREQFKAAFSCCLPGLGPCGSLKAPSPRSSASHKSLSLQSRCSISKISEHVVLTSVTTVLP
The assay can be described thus: Antagonistic activity against human OX1 receptor, [Ca2+]i fluorimetry (Fluo-4NW) in transfected CHO cells activated with orexin-A. Format: cell-based. The note with it: CHO cells transfected with human recombinant OX1; orexin-A 3 nM; pKb = co-logarithm of apparent dissociation constant, modified Cheng Prusoff. In short, it runs like this: as §1

As to `Cc1nc(C(=O)N2CC3(CC3)C[C@H]2CNc2ccc(Cl)cn2)c(-c2ccccc2)s1` [Compound 2a, (S)-(6-(((5-chloropyridin-2-yl)amino)methyl)-5-azaspiro[2.4]heptan-5-yl)(2-methyl-5-phenylthiazol-4-yl)methanone], the antagonist equilibrium constant (Kb) in assay [1] was 79.4 nM; in assay [2], 5.01 nM.

For `Cc1ccc(-c2ncccn2)c(C(=O)N2CC3(CC3)C[C@H]2CNc2cc(C(F)(F)F)cc(C)n2)c1` [Compound 1m, (S)-(5-methyl-2-(pyrimidin-2-yl)phenyl)(6-(((6-methyl-4-(trifluoromethyl)pyridin-2-yl)amino)methyl)-5-azaspiro[2.4]heptan-5-yl)methanone], the Kb was 12.6 nM in assay [1] and 15.8 nM in assay [2].

For `Cc1nc(C(=O)N2CC3(CC3)C[C@H]2CNc2nc3ccc(F)cc3s2)c(-c2ccccc2)s1` [Compound 2h, (S)-(6-(((6-fluorobenzo[d]thiazol-2-yl)amino)methyl)-5-azaspiro[2.4]heptan-5-yl)(2-methyl-5-phenylthiazol-4-yl)methanone], the Kb was 6.31 nM in assay [1] and 3.98 nM in assay [2].

Take `Cc1ccc(-c2ncccn2)c(C(=O)N2CC3(CC3)C[C@H]2CNc2ncc(Cl)cc2F)n1` [Compound 3c, (S)-(6-(((5-chloro-3-fluoropyridin-2-yl)amino)methyl)-5-azaspiro[2.4]heptan-5-yl)(6-methyl-3-(pyrimidin-2-yl)pyridin-2-yl)methanone]: the values for the Kb in assay [1] and in assay [2] were 39.8 nM and 6.31 nM, respectively.

As for `O=C(c1cc(F)ccc1-c1ncccn1)N1CC2(CC2)C[C@H]1CNc1cc(C(F)(F)F)ccn1` [Compound 1k, (S)-(5-fluoro-2-(pyrimidin-2-yl)phenyl)(6-(((4-(trifluoromethyl)pyridin-2-yl)amino)methyl)-5-azaspiro[2.4]heptan-5-yl)methanone], the Kb is 7.94 nM in assay [1] and 50.1 nM in assay [2].

As to `Cc1ccc(-c2ccc(C)nc2C(=O)N2CC3(CC3)C[C@H]2CNc2ccc(C(F)(F)F)cn2)c(F)c1` [Compound E4, (S)-(3-(2-fluoro-4-methylphenyl)-6-methylpyridin-2-yl)(6-(((5-(trifluoromethyl)pyridin-2-yl)amino)methyl)-5-azaspiro[2.4]heptan-5-yl)methanone], the values for the Kb in assay [1] and in assay [2] were 31.6 nM and 39.8 nM, respectively.

With `O=C(c1cc(Cl)ccc1-c1ncccn1)N1CC2(CC2)C[C@H]1CNc1cc(C(F)(F)F)ccn1` [Compound 1f, (S)-(5-chloro-2-(pyrimidin-2-yl)phenyl)(6-(((4-(trifluoromethyl)pyridin-2-yl)amino)methyl)-5-azaspiro[2.4]heptan-5-yl)methanone], the Kb in assay [1] was 12.6 nM; in assay [2], 7.94 nM.

Regarding `Cc1ccc(OCc2ccc(F)cc2F)c(C(=O)N2CC3(CC3)C[C@H]2CNc2ccc(C(F)(F)F)cn2)n1` [Compound 3n, (S)-(3-((2,4-difluorobenzyl)oxy)-6-methylpyridin-2-yl)(6-(((5-(trifluoromethyl)pyridin-2-yl)amino)methyl)-5-azaspiro[2.4]heptan-5-yl)methanone], the antagonist dissociation constant (Kb) in assay [1] and in assay [2] was 79.4 nM each time.

With `Cc1ccc(-c2ccccc2)c(C(=O)N2CC3(CC3)C[C@H]2CNc2ccc(C(F)(F)F)cn2)n1` [Compound 3b, (S)-(6-methyl-3-phenylpyridin-2-yl)(6-(((5-(trifluoromethyl)pyridin-2-yl)amino)methyl)-5-azaspiro[2.4]heptan-5-yl)methanone], the Kb in assay [1] is 10 nM; in assay [2] it was 2.51 nM.

Turning to `Cc1nc(C(=O)N2CC3(CC3)C[C@H]2CNc2ccc(C(F)(F)F)cn2)c(-c2ccccc2)s1` [Compound 2d, (S)-(2-methyl-5-phenylthiazol-4-yl)(6-(((5-(trifluoromethyl)pyridin-2-yl)amino)methyl)-5-azaspiro[2.4]heptan-5-yl)methanone], the results for the Kb in assay [1] and in assay [2] were 20 nM and 3.98 nM, respectively.

Consider `Cc1ccc(-c2ncccn2)c(C(=O)N2CC3(CC3)C[C@H]2CNc2ncc(C(F)(F)F)cn2)c1` [Compound 1s, (S)-(5-methyl-2-(pyrimidin-2-yl)phenyl)(6-(((5-(trifluoromethyl)pyrimidin-2-yl)amino)methyl)-5-azaspiro[2.4]heptan-5-yl)methanone], for which the Kb in assay [1] is 100 nM; in assay [2] it was 25.1 nM.

Take `Cc1ccc(-c2cccnc2)c(C(=O)N2CC3(CC3)C[C@H]2CNc2ccc(C(F)(F)F)cn2)n1` [Compound E6, (S)-(6-methyl-[3,3′-bipyridin]-2-yl)(6-(((5-(trifluoromethyl)pyridin-2-yl)amino)methyl)-5-azaspiro[2.4]heptan-5-yl)methanone]: the Kb in assay [1] was 200 nM; in assay [2], 100 nM.

`CS(=O)(=O)c1ccc(-c2ccccc2)c(C(=O)N2CC3(CC3)C[C@H]2CNc2ccc(C(F)(F)F)cn2)c1` [Compound 1d, (S)-(4-(methylsulfonyl)-[1,1′-biphenyl]-2-yl)(6-(((5-(trifluoromethyl)pyridin-2-yl)amino)methyl)-5-azaspiro[2.4]heptan-5-yl)methanone]: the Kb in assay [1] was 79.4 nM; in assay [2], 200 nM.

As for `O=C(c1cc(Cl)ccc1-c1ncccn1)N1CC2(CC2)C[C@H]1CNc1ccc(C(F)(F)F)cn1` [Compound 1a, (S)-(5-chloro-2-(pyrimidin-2-yl)phenyl)(6-(((5-(trifluoromethyl)pyridin-2-yl)amino)methyl)-5-azaspiro[2.4]heptan-5-yl)methanone], the Kb in assay [1] was 63.1 nM; in assay [2], 7.94 nM.

In the case of `Cc1ccc(-c2ncccn2)c(C(=O)N2CC3(CC3)C[C@H]2CNc2ncc(C(F)(F)F)cc2F)n1` [Compound 3d, (S)-(6-(((3-fluoro-5-(trifluoromethyl)pyridin-2-yl)amino)methyl)-5-azaspiro[2.4]heptan-5-yl)(6-methyl-3-(pyrimidin-2-yl)pyridin-2-yl)methanone], the Kb is 10 nM in assay [1] and 3.98 nM in assay [2].

For `Cc1ccc(OCc2ccc(F)cc2)c(C(=O)N2CC3(CC3)C[C@H]2CNc2ccc(C(F)(F)F)cn2)n1` [Compound 3m, (S)-(3((4-fluorobenzyl)oxy)-6-methylpyridin-2-yl)(6-(((5-(trifluoromethyl)pyridin-2-yl)amino)methyl)-5-azaspiro[2.4]heptan-5-yl)methanone], the Kb was 15.8 nM in assay [1] and 39.8 nM in assay [2].

On to `O=C(c1nc(C2CC2)ccc1-c1ccccc1)N1CC2(CC2)C[C@H]1CNc1ccc(C(F)(F)F)cn1` [Compound 3r, (S)-(6-cyclopropyl-3-phenylpyridin-2-yl)(6-(((5-(trifluoromethyl)pyridin-2-yl)amino)methyl)-5-azaspiro[2.4]heptan-5-yl)methanone], for which the Kb in assay [1] was 12.6 nM; in assay [2], 2.51 nM.

With `Cc1cccc(C(=O)N2CC3(CC3)C[C@H]2CNc2ccc(C(F)(F)F)cn2)c1-c1ncccn1` [Compound 1c, (S)-(3-methyl-2-(pyrimidin-2-yl)phenyl)(6-(((5-(trifluoromethyl)pyridin-2-yl)amino)methyl)-5-azaspiro[2.4]heptan-5-yl)methanone], the Kb was 200 nM in assay [1] and 12.6 nM in assay [2].

For the compound `O=C(c1cc(Cl)ccc1-c1ncccn1)N1CC2(CC2)C[C@H]1CNc1nccc(C(F)(F)F)n1` [Compound 1q], the Kb in assay [1] was 6.31 nM; in assay [2] it was 39.8 nM.

For the compound `Cc1ccc(-c2ccc(F)c(F)c2)c(C(=O)N2CC3(CC3)C[C@H]2CNc2ccc(C(F)(F)F)cn2)n1` [Compound E11, (S)-(3-(3,4-difluorophenyl)-6-methylpyridin-2-yl)(6-(((5-(trifluoromethyl)pyridin-2-yl)amino)methyl)-5-azaspiro[2.4]heptan-5-yl)methanone], the results for the Kb in assay [1] and in assay [2] were 20 nM and 12.6 nM, respectively.

Turning to `Cc1cc(C(F)(F)F)cc(NC[C@@H]2CC3(CC3)CN2C(=O)c2cc(F)ccc2-c2ncccn2)n1` [Compound 1j, (S)-(5-fluoro-2-(pyrimidin-2-yl)phenyl)(6-(((6-methyl-4-(trifluoromethyl)pyridin-2-yl)amino)methyl)-5-azaspiro[2.4]heptan-5-yl)methanone], the Kb was 6.31 nM in assay [1] and 20 nM in assay [2].

The term Kb denotes the equilibrium dissociation constant of an antagonist, usually derived from a functional assay.
